According to patent US20250388589A1, “TRICYCLIC HETEROCYCLIC DERIVATIVES, COMPOSITIONS AND USES THEREOF” (Danatlas Pharmaceuticals Co., Ltd., priority 2022, published 2025):

Key:
[1] = biological target: hPARG (C-terminal His6-tag) (Homo sapiens (Human), UniProt Q86W56); experiment: PARG Enzymatic Activity Assay (HTRF); format: biochemical; conditions: hPARG 65 pM final, biotinylated-NAD ribosylated PARP1 8 nM final
In short: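 E. coli-expressed enzyme (65 pM final) preincubated 60 min RT with compounds (10-point 4-fold dilution, duplicate) in 50 mM Tris pH 7.4, 3 mM EDTA, 1 mM DTT, 50 mM KCl, 0.01% Tween 20. Biotinylated-NAD ribosylated PARP1 substrate (8 nM final) reacted 10 min RT; Eu-streptavidin/anti-6HIS-XL665 HTRF read 665/620 nm after 60 min. IC50 from 4-parameter Hill fit.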

Kuramochi cell line = experiment: Cell Viability Assay (Cell Titer-Glo, 7 days); format: cell-based; conditions: 168 h, Kuramochi cells, 7 days incubation, read-out: PARG Cell viability (IC50)
In short: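 Kuramochi cells in RPMI with 10% FBS, seeded at 400 cells/well, were treated with a 9-point 3-fold dilution series in duplicate for 7 days at 37 °C, 5% CO2. Viability by CellTiter-Glo luminescence, normalised to DMSO and medium-only controls; IC50 from 4-parameter Hill fit.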

hPARG (C-terminal His6-tag), sequence (Q86W56 whole entry): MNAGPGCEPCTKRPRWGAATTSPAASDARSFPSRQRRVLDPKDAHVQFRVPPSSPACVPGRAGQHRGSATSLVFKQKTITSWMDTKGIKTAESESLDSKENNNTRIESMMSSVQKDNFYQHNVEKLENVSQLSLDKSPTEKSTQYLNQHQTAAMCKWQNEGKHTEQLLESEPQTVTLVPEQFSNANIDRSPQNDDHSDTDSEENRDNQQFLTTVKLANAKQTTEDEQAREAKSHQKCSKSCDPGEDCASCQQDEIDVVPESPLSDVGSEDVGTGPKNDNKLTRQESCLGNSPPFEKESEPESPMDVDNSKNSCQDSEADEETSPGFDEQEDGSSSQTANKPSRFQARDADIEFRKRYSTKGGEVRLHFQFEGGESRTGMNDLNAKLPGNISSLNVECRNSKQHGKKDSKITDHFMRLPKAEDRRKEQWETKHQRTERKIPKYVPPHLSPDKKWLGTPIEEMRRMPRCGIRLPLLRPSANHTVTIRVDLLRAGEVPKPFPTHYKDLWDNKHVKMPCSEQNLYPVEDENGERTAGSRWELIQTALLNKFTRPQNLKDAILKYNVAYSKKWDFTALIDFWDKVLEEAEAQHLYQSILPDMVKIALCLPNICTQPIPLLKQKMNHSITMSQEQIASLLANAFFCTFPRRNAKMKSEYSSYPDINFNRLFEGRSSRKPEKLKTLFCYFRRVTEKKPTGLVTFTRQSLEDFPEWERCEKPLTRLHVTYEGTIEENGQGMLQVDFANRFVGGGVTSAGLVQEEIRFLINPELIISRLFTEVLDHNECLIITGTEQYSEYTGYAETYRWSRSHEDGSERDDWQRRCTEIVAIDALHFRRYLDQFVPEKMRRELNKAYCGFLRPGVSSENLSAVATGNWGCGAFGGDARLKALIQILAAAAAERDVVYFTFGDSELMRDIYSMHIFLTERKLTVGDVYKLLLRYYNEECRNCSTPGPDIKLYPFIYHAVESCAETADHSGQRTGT

| SMILES | IC50 [1] | IC50 (Kuramochi cell line) |
| --- | --- | --- |
| N#CC1(NS(=O)(=O)c2ccc3c4c(N5CCC(F)CC5)ncnc4n(-c4nnc(C(F)F)s4)c3c2)CC1 [Example 51, N-(1-Cyanocyclopropyl)-9-(5-(difluoromethyl)-1,3,4-thiadiazol-2-yl)-4-(4-fluoropiperidin-1-yl)-9H-pyrimido[4,5-b]indole-7-sulfonamide] | < 100 nM | 100 to 1000 nM |
| C[C@@H]1CN(c2ncnc3c2c2ccc(S(=O)(=O)NC4(C#N)CC4)cc2n3-c2nnc(C(F)F)s2)CCO1 [Example 21, (R)-N-(1-cyanocyclopropyl)-9-(5-(difluoromethyl)-1,3,4-thiadiazol-2-yl)-4-(2-methylmorpholino)-9H-pyrimido[4,5-b]indole-7-sulfonamide] | < 100 nM | 100 to 1000 nM |
| C[C@@H]1CN(c2ncnc3c2c2ccc(S(=O)(=O)NC4(C#N)CC4)cc2n3-c2nnc(C(F)F)s2)C[C@H](C)N1C(=O)C1COC1 [Example 58, N-(1-Cyanocyclopropyl)-9-(5-(difluoromethyl)-1,3,4-thiadiazol-2-yl)-4-((3S,5R)-3,5-dimethyl-4-(oxetane-3-carbonyl)piperazin-1-yl)-9H-pyrimido[4,5-b]indole-7-sulfonamide] | < 100 nM | < 100 nM |
| CN(C)[C@H]1CCN(C(=O)N2CCC(c3ncnc4c3c3ccc(S(=O)(=O)NC5(C#N)CC5)cc3n4-c3nnc(C(F)F)s3)CC2)C1 [Example 136, (S)-N-(1-Cyanocyclo-propyl)-9-(5-(difluoromethyl)-1,3,4-thiadiazol-2-yl)-4-(1-(3-(dimethylamino)pyrrolidine-1-carbonyl)piperidin-4-yl)-9H-pyrimido [4,5-b]indole-7-sulfonamide] | < 100 nM | < 100 nM |
| N#CC1(NS(=O)(=O)c2ccc3c4c(N5CCC6(CC5)COC6)ncnc4n(-c4nnc(C(F)F)s4)c3c2)CC1 [Example 20, N-(1-Cyanocyclopropyl)-9-(5-(difluoromethyl)-1,3,4-thiadiazol-2-yl)-4-(2-oxa-7-azaspiro[3.5]nonan-7-yl)-9H-pyrimido[4,5-b]indole-7-sulfonamide] | < 100 nM | < 100 nM |
| CC(C)C(=O)N1CC2(C1)CN(c1ncnc3c1c1ccc(S(=O)(=O)NC4(C#N)CC4)cc1n3-c1nnc(C(F)F)s1)C2 [Example 23, N-(1-Cyanocyclopropyl)-9-[5-(difluoromethyl)-1,3,4-thiadiazol-2-yl]-4-[2-(2-methylpropanoyl)-2,6-diazaspiro[3.3]heptan-6-yl]pyrimido[4,5-b]indole-7-sulfonamide] | < 100 nM | 100 to 1000 nM |
| CN(CCO)C(=O)N1CCC(c2ncnc3c2c2ccc(S(=O)(=O)NC4(C#N)CC4)cc2n3-c2nnc(C(F)F)s2)CC1 [Example 143, 4-(7-(N-(1-cyanocyclo-propyl)sulfamoyl)-9-(5-(difluoromethyl)-1,3,4-thiadiazol-2-yl)-9H-pyrimido[4,5-b]indol-4-yl)-N-(2-hydroxyethyl)-N-methylpiperidine-1-carboxamide] | < 100 nM | 100 to 1000 nM |
| N#CC1(NS(=O)(=O)c2ccc3c4c(N5CC6CC(C5)O6)ncnc4n(-c4nnc(C(F)F)s4)c3c2)CC1 [Example 176, 4-(6-oxa-3-azabicyclo[3.1.1]heptan-3-yl)-N-(1-cyanocyclopropyl)-9-(5-(difluoromethyl)-1,3,4-thiadiazol-2-yl)-9H-pyrimido[4,5-b]indole-7-sulfonamide] | < 100 nM | < 100 nM |
| C[C@H]1CN(c2ncnc3c2c2ccc(S(=O)(=O)NC4(C#N)CC4)cc2n3-c2nnc(C(F)F)s2)CCN1CC#N [Example 205, (S)—N-(1-Cyanocyclopropyl)-4-(4-(cyanomethyl)-3-methylpiperazin-1-yl)-9-(5-(difluoromethyl)-1,3,4-thiadiazol-2-yl)-9H-pyrimido[4,5-b]indole-7-sulfonamide] | < 100 nM | < 100 nM |
| CC(C)(O)C(=O)N1CCC(c2ncnc3c2c2ccc(S(=O)(=O)NC4(C#N)CC4)cc2n3-c2nnc(C(F)F)s2)CC1 [Example 118, N-(1-cyanocyclopropyl)-9-(5-(difluoromethyl)-1,3,4-thiadiazol-2-yl)-4-(1-(2-hydroxy-2-methylpropanoyl)piperidin-4-yl)-9H-pyrimido[4,5-b]indole-7-sulfonamide] | < 100 nM | < 100 nM |
| CN(C)C(=O)N1CCC(c2ccnc3c2c2ccc(S(=O)(=O)NC4(C)CC4)cc2n3-c2nnc(C(F)F)s2)CC1 [Example 195, 4-(9-(5-(Difluoromethyl)-1,3,4-thiadiazol-2-yl)-7-(N-(1-methylcyclopropyl)sulfamoyl)-9H-pyrido[2,3-b]indol-4-yl)-N,N-dimethylpiperidine-1-carboxamide] | < 100 nM | 100 to 1000 nM |
| CC(C)C(=O)N1CCN(c2ncnc3c2c2ccc(S(=O)(=O)NC4(C#N)CC4)cc2n3-c2nnc(C(F)F)s2)C[C@@H]1C [Example 61, (S)-N-(1-cyanocyclopropyl)-9-(5-(difluoromethyl)-1,3,4-thiadiazol-2-yl)-4-(4-isobutyryl-3-methylpiperazin-1-yl)-9H-pyrimido[4,5-b]indole-7-sulfonamide] | < 100 nM | < 100 nM |
| CC(C)C(=O)N1C=CC(c2ncnc3c2c2ccc(S(=O)(=O)NC4(C#N)CC4)cc2n3-c2nnc(C(F)F)s2)CC1 (centres unmarked) [Example 75, N-(1-Cyanocyclopropyl)-9-(5-(difluoromethyl)-1,3,4-thiadiazol-2-yl)-4-(1-isobutyryl-1,2,3,4-tetrahydropyridin-4-yl)-9H-pyrimido[4,5-b]indole-7-sulfonamide] | < 100 nM | < 100 nM |
| N#CC1(NS(=O)(=O)c2ccc3c4c(C5CCN(C(=O)[C@H]6CCCO6)CC5)ncnc4n(-c4nnc(C(F)F)s4)c3c2)CC1 [Example 110, (R)-N-(1-cyanocyclopropyl)-9-(5-(difluoromethyl)-1,3,4-thiadiazol-2-yl)-4-(1-(tetrahydrofuran-2-carbonyl)piperidin-4-yl)-9H-pyrimido[4,5-b]indole-7-sulfonamide] | < 100 nM | < 100 nM |

Continued, in another order:

| IC50 [1] | SMILES | IC50 (Kuramochi cell line) |
| --- | --- | --- |
| < 100 nM | N#CC1(NS(=O)(=O)c2ccc3c4c(N5CCC(N6CCC6)[C@@H](F)C5)ncnc4n(-c4nnc(C(F)F)s4)c3c2)CC1 (stereo partly drawn) [Example 208, 4-((3S)-4-(Azetidin-1-yl)-3-fluoropiperidin-1-yl)-N-(1-cyanocyclopropyl)-9-(5-(difluoromethyl)-1,3,4-thiadiazol-2-yl)-9H-pyrimido[4,5-b]indole-7-sulfonamide] | < 100 nM |
| < 100 nM | COC(C)(C)C(=O)N1CCC(c2ncnc3c2c2ccc(S(=O)(=O)NC4(C#N)CC4)cc2n3-c2nnc(C(F)F)s2)CC1 [Example 119, N-(1-cyanocyclopropyl)-9-(5-(difluoromethyl)-1,3,4-thiadiazol-2-yl)-4-(1-(2-methoxy-2-methylpropanoyl)piperidin-4-yl)-9H-pyrimido[4,5-b]indole-7-sulfonamide] | < 100 nM |
| < 100 nM | CO[C@H]1CCN(C(=O)N2CCC(c3ncnc4c3c3ccc(S(=O)(=O)NC5(C#N)CC5)cc3n4-c3nnc(C(F)F)s3)CC2)C1 [Example 134, (S)—N-(1-Cyanocyclopropyl)-9-(5-(difluoromethyl)-1,3,4-thiadiazol-2-yl)-4-(1-(3-methoxypyrrolidine-1-carbonyl)piperidin-4-yl)-9H-pyrimido[4,5-b]indole-7-sulfonamide] | < 100 nM |
| 100 to 1000 nM | N#CC1(NS(=O)(=O)c2ccc3c4c(N5CC6OCCOC6C5)ncnc4n(-c4nnc(C(F)F)s4)c3c2)CC1 (centres unmarked) [Example 165, N-(1-Cyanocyclopropyl)-9-(5-(difluoromethyl)-1,3,4-thiadiazol-2-yl)-4-(hexahydro-6H-[1,4]dioxino[2,3-c]pyrrol-6-yl)-9H-pyrimido[4,5-b]indole-7-sulfonamide] | 100 to 1000 nM |
| < 100 nM | CN1CCN(C(=O)N2CCN(c3ncnc4c3c3ccc(S(=O)(=O)NC5(C#N)CC5)cc3n4-c3nnc(C(F)F)s3)CC2)CC1 [Example 9, N-(1-Cyanocyclopropyl)-9-(5-(difluoromethyl)-1,3,4-thiadiazol-2-yl)-4-(4-(4-methylpiperazine-1-carbonyl)piperazin-1-yl)-9H-pyrimido[4,5-b]indole-7-sulfonamide] | 100 to 1000 nM |
| < 100 nM | C[C@@H]1CN(C(=O)N(C)C)[C@@H](C)CN1c1ncnc2c1c1ccc(S(=O)(=O)NC3(C)CC3)cc1n2-c1nnc(C(F)F)s1 [Example 100, (2S,5R)-4-(9-(5-(difluoromethyl)-1,3,4-thiadiazol-2-yl)-7-(N-(1-methylcyclopropyl)sulfamoyl)-9H-pyrimido[4,5-b]indol-4-yl)-N,N,2,5-tetramethylpiperazine-1-carboxamide] | < 100 nM |
| < 100 nM | CN(C)C(=O)N1CC2CN(c3ncnc4c3c3ccc(S(=O)(=O)NC5(C#N)CC5)cc3n4-c3nnc(C(F)F)s3)CC2C1 (centres unmarked) [Example 28, 5-(7-(N-(1-Cyanocyclopropyl)sulfamoyl)-9-(5-(difluoromethyl)-1,3,4-thiadiazol-2-yl)-9H-pyrimido[4,5-b]indol-4-yl)-N,N-dimethylhexahydropyrrolo[3,4-c]pyrrole-2(1H)-carboxamide] | 100 to 1000 nM |
| < 100 nM | CC(C)(C)C(=O)N1CCN(c2ncnc3c2c2ccc(S(=O)(=O)NC4(C#N)CC4)cc2n3-c2nnc(C(F)F)s2)CC1 [Example 3, N-(1-Cyanocyclopropyl)-9-(5-(difluoromethyl)-1,3,4-thiadiazol-2-yl)-4-(4-pivaloylpiperazin-1-yl)-9H-pyrimido[4,5-b]indole-7-sulfonamide] | < 100 nM |
